The source of these data is ChEMBL document CHEMBL1201862, “PubChem BioAssay data set” (2004).

Some test systems named below: UO-31; HL-60; M14; OVCAR-3; RXF 393; UACC-257; LOX IMVI; SNB-75; NCI-H460; Hs-578T; HCC 2998; SK-MEL-28; OVCAR-5; HCT-116; MDA-N; MDA-MB-231; EKVX; HOP-62; CAKI-1; K562.
What all share (test): DTP human tumour cell line panel, 48 h

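96-well plates; 48 h exposure; 5 concentrations. Endpoints by linear interpolation between flanking doses. Not reached: highest tested concentration assigned. The concentration for 50% growth inhibition is given as GI50.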 The source made the active and inactive calls. Rule as the data show it: active = GI50 up to about 1.1 µM and inactive = higher. Where only a bound is given, the exact number is not on record here.

As to `COC(=O)/C(=N\NC(=S)NN)C(C(=O)OC)C(=O)C(=O)Nc1cccc(C(F)(F)F)c1` (stereo unspecified), the GI50 with UO-31, in the assay on HL-60, in the assay with M14, in the assay with OVCAR-3, in the assay on RXF 393 and with UACC-257 was > 100 µM (inactive) in each case. The GI50 (in general, the concentration at which growth is held to half of that of the control) with LOX IMVI was > 100 µM (inactive); in the assay with SNB-75, > 100 µM (inactive); in the assay with NCI-H460 it was > 100 µM (inactive); in the assay on Hs-578T, > 100 µM (inactive); in the assay with HCC 2998 it was > 100 µM (inactive); in the assay with SK-MEL-28, 49.3 µM (inactive). In addition, the GI50 in the assay with OVCAR-5 is 79.1 µM (inactive); in the assay with HCT-116, > 100 µM (inactive); with MDA-N, > 100 µM (inactive); in the assay with MDA-MB-231 it was > 100 µM (inactive); with EKVX it was > 100 µM (inactive); in the assay on HOP-62, > 100 µM (inactive). Moreover, the GI50 with CAKI-1 was > 100 µM (inactive).
Consider `N#Cc1sc2c(c1OC(=O)c1ccc(C(F)(F)F)cc1)c(=O)n(-c1ccccc1)c(=S)n2-c1ccccc1`, for which the GI50 is 21 µM (inactive) with HL-60; 24.2 µM (inactive) with M14; 19.5 µM (inactive) with OVCAR-3; 14.8 µM (inactive) with RXF 393; 42.7 µM (inactive) in the assay with UACC-257; 24.5 µM (inactive) in the assay on LOX IMVI. For the same molecule, the GI50 with SNB-75 is 27.4 µM (inactive); in the assay on NCI-H460 it was 30.3 µM (inactive); in the assay with Hs-578T, 26.2 µM (inactive); with HCC 2998, 34.4 µM (inactive); in the assay with SK-MEL-28 it was 33.8 µM (inactive); with OVCAR-5, 49.2 µM (inactive). Also, the GI50 in the assay with HCT-116 is 17.8 µM (inactive); with MDA-N, 29.5 µM (inactive); with MDA-MB-231, 31.3 µM (inactive); in the assay on K562 it was 28.2 µM (inactive); in the assay with EKVX, 24.9 µM (inactive); with HOP-62, 31.1 µM (inactive). Besides, the GI50 with CAKI-1 was 32.4 µM (inactive).
As for `N#Cc1c2c([nH]c(=O)c1C#N)CCCC2`, the GI50 in the assay with UO-31, in the assay with HL-60, in the assay on M14, with OVCAR-3, in the assay with RXF 393 and in the assay with UACC-257 was > 100 µM (inactive) throughout. For the same molecule, the GI50 is > 100 µM (inactive) with LOX IMVI; 82.8 µM (inactive) in the assay on SNB-75; > 100 µM (inactive) in the assay on NCI-H460; > 100 µM (inactive) with Hs-578T; > 100 µM (inactive) in the assay on HCC 2998; > 100 µM (inactive) in the assay on SK-MEL-28. Besides, the GI50 in the assay on OVCAR-5, with HCT-116, with MDA-N, with MDA-MB-231, with K562 and in the assay on EKVX was > 100 µM (inactive) throughout. Also, the GI50 in the assay with CAKI-1 was > 100 µM (inactive).
For the molecule `CC1=C2C(=CO[C@H](C)[C@H]2C)C(O)=C(C(=O)O)C1=O` [CITRININ], the GI50 with UO-31 was 48.3 µM (inactive); in the assay with HL-60, 11.1 µM (inactive); in the assay with M14, 23 µM (inactive); in the assay with OVCAR-3, 16.7 µM (inactive); with RXF 393, 13.2 µM (inactive); in the assay with UACC-257 it was 29.7 µM (inactive). The GI50 was 16.3 µM (inactive) in the assay with LOX IMVI; 32.6 µM (inactive) in the assay on SNB-75; 27.5 µM (inactive) in the assay with Hs-578T; 19.1 µM (inactive) in the assay with HCC 2998; 31.8 µM (inactive) in the assay on SK-MEL-28; 59.8 µM (inactive) in the assay with OVCAR-5. In addition, the GI50 in the assay with HCT-116 was 25.8 µM (inactive); in the assay on MDA-N, 26.2 µM (inactive); in the assay with MDA-MB-231 it was 23.2 µM (inactive); in the assay with K562 it was 15.3 µM (inactive); with EKVX, 18.7 µM (inactive); in the assay on HOP-62 it was 17.1 µM (inactive). Besides, in the assay with CAKI-1, the GI50 is 27.3 µM (inactive).
For `C=CC1(c2ccc(Cl)c(Cl)c2)OCCO1`, the GI50 in the assay on UO-31 is > 100 µM (inactive); in the assay with HL-60, 16.6 µM (inactive); in the assay with M14, > 100 µM (inactive); with OVCAR-3, > 100 µM (inactive); in the assay on RXF 393, > 100 µM (inactive); in the assay on UACC-257, > 100 µM (inactive). The GI50 in the assay with LOX IMVI was > 100 µM (inactive); in the assay on SNB-75, 1.48 µM (inactive); in the assay with NCI-H460 it was > 100 µM (inactive); with Hs-578T it was 40.8 µM (inactive); with HCC 2998, > 100 µM (inactive); in the assay on SK-MEL-28, > 100 µM (inactive). Also, the GI50 is > 100 µM (inactive) in the assay on OVCAR-5; 97.7 µM (inactive) with HCT-116; > 100 µM (inactive) in the assay on MDA-N; 1.83 µM (inactive) with MDA-MB-231; 27.7 µM (inactive) with K562; > 100 µM (inactive) in the assay with EKVX. In addition, the GI50 with HOP-62 was 10.8 µM (inactive).
Regarding `C=C(C)[C@@H]1CCc2c(c(C)cc(O)c(=O)c2O)C1`, the GI50 in the assay with UO-31 was 0.92 µM (active); with HL-60, 0.462 µM (active); in the assay with M14 it was 1.47 µM (inactive); in the assay on RXF 393, 2.6 µM (inactive); in the assay with UACC-257, 6.81 µM (inactive); in the assay with LOX IMVI, 0.695 µM (active). For the same molecule, the GI50 is 3.68 µM (inactive) in the assay on SNB-75; 0.102 µM (active) in the assay on NCI-H460; 2.16 µM (inactive) in the assay on Hs-578T; 1.76 µM (inactive) in the assay on HCC 2998; 4.63 µM (inactive) in the assay on SK-MEL-28; > 73.1 µM (inactive) with OVCAR-5. For the same molecule, the GI50 with HCT-116 was 0.156 µM (active); with MDA-N, 3.08 µM (inactive); with MDA-MB-231 it was > 52.1 µM (inactive); with K562, 0.881 µM (active); with EKVX, 2.49 µM (inactive); in the assay on CAKI-1, 0.13 µM (active).
In the case of `C/C(CC(O)(C(F)(F)F)C(F)(F)F)=N\N`, the GI50 with HL-60, in the assay on M14, in the assay on OVCAR-3, in the assay on RXF 393, in the assay on UACC-257 and with LOX IMVI was > 10 µM (inactive) throughout. In addition, the GI50 in the assay with SNB-75, with NCI-H460, with Hs-578T, with HCC 2998, in the assay on SK-MEL-28 and in the assay on OVCAR-5 was > 10 µM (inactive) in each case. In addition, the GI50 in the assay on HCT-116, in the assay on MDA-N, with MDA-MB-231, in the assay with K562, in the assay with EKVX and with HOP-62 was > 10 µM (inactive) each time. For the same molecule, the GI50 in the assay on CAKI-1 is > 10 µM (inactive).
Consider `COc1ccc(N2C(=O)c3cc([N+](=O)[O-])cnc3S2(=O)=O)cc1`, for which the GI50 in the assay with UO-31, with HL-60, in the assay on OVCAR-3, with RXF 393, in the assay on LOX IMVI and in the assay on SNB-75 was > 100 µM (inactive) throughout. Besides, the GI50 with NCI-H460, in the assay with Hs-578T, in the assay with HCC 2998, with SK-MEL-28, in the assay with OVCAR-5 and with HCT-116 was > 100 µM (inactive) each time. Further, the GI50 with MDA-N, in the assay with MDA-MB-231, in the assay on K562, with EKVX and in the assay on HOP-62 was > 100 µM (inactive) throughout.
As for `OCC1OC(O)C(/N=C\c2ccc3c(c2)OCO3)C(O)C1O` (stereo unspecified), the GI50 with UO-31, in the assay on HL-60, with M14, in the assay on OVCAR-3, in the assay with RXF 393 and in the assay with UACC-257 was > 100 µM (inactive) throughout. Further, the GI50 in the assay with LOX IMVI, in the assay with SNB-75, in the assay with NCI-H460, with Hs-578T, in the assay with HCC 2998 and with SK-MEL-28 was > 100 µM (inactive) each time. Also, the GI50 was > 100 µM (inactive) in the assay with OVCAR-5; > 100 µM (inactive) in the assay on HCT-116; > 100 µM (inactive) in the assay on MDA-N; > 100 µM (inactive) in the assay with MDA-MB-231; > 65.3 µM (inactive) with EKVX; > 100 µM (inactive) with HOP-62. Further, the GI50 in the assay on CAKI-1 was > 100 µM (inactive).
Regarding `COC(=O)C1CN=CN1CCc1ccccc1` (stereo unspecified), the GI50 in the assay with UO-31, with HL-60, in the assay with M14, in the assay with OVCAR-3, in the assay with RXF 393 and with UACC-257 was > 100 µM (inactive) in each case. Moreover, the GI50 is > 100 µM (inactive) in the assay with LOX IMVI; 15.5 µM (inactive) with SNB-75; > 100 µM (inactive) in the assay with NCI-H460; > 100 µM (inactive) in the assay with Hs-578T; > 100 µM (inactive) in the assay on HCC 2998; > 100 µM (inactive) in the assay on SK-MEL-28. For the same molecule, the GI50 in the assay with OVCAR-5, in the assay with HCT-116, in the assay with MDA-N, in the assay on MDA-MB-231, in the assay on K562 and in the assay with EKVX was > 100 µM (inactive) each time. In addition, the GI50 in the assay with CAKI-1 is > 100 µM (inactive).
Turning to `Cc1cc(C)c2c(c1)C(=O)/C(=C/c1ccccc1C(=O)O)C2`, the GI50 in the assay on UO-31 is > 100 µM (inactive); in the assay on HL-60, 57.7 µM (inactive); in the assay on M14, 90.4 µM (inactive); with OVCAR-3, 22.5 µM (inactive); with RXF 393, 38.7 µM (inactive); with UACC-257, > 100 µM (inactive). Besides, the GI50 with LOX IMVI is 71.9 µM (inactive); with SNB-75, 40 µM (inactive); in the assay on NCI-H460, 58.5 µM (inactive); in the assay on Hs-578T, > 100 µM (inactive); in the assay with HCC 2998, 51.3 µM (inactive); in the assay with SK-MEL-28 it was > 100 µM (inactive). Besides, the GI50 was 63 µM (inactive) in the assay on HCT-116; 67.5 µM (inactive) with MDA-N; 50.2 µM (inactive) in the assay on MDA-MB-231; 52.5 µM (inactive) in the assay on K562; 29.1 µM (inactive) in the assay with EKVX; 67.5 µM (inactive) in the assay on HOP-62. Also, in the assay with CAKI-1, the GI50 was > 100 µM (inactive).
